Measured values: patent US20040005537A1, “Method of identifying toxic agents using differential gene expression” (priority 2000, published 2004)

Legend:
rat heart tissue = assay: GENECALLING differential gene expression analysis after dosing of serotonin modulating agents; format: in vivo, Sprague Dawley rats
Method: Control animals received sterile water or canola oil. The animals were sacrificed 24 hours following the last dose. Liver tissue was dissected from the animals, and total RNA was recovered from the dissected tissue. cDNA was prepared and the resulting samples were processed through using GENECALLING™ differential expression analysis as described in U.S. Pat. No. 5,871,697 and in Shimkets et al., Nature Biotechnology 17:798-803 (1999). The contents of these patents and publications are incorporated herein by reference in their entirety.
Thousands of gene fragments were initially found to be differentially expressed in rat heart tissue in response to serotonin modulating agents in. Genes fragments whose expression levels were modulated greater than ±1.5-fold were selected for further analysis.
Column 6 of Table 1, entitled “Function”, lists the type of classification assigned for the protein, based on its function. The 210 single nucleic acid sequences identified herein, are referred to herein as CARDIOTOX 1-210.

[1] = grouping used to generate the distinguishing gene profiles; cited from earlier work

CNCCC(Oc1ccc(C(F)(F)F)cc1)c1ccccc1 (stereo not shown) [fluoxetine]
Effects on Transcription Level: Novel gene fragment, 535 bp, 90% SI to mouse slow/cardiac troponin C [M29793] (rat heart tissue; CARDIOTOX 71): −2.0 fold | Effects on Transcription Level: Novel gene fragment, 445 bp, 85% SI to human skeletal muscle alpha 2 actinin [M86406] (rat heart tissue; CARDIOTOX 72): −1.6 fold | Effects on Transcription Level: Novel gene fragment, 246 bp, 89% SI to mouse ponsin-1 [AF078667] (rat heart tissue; CARDIOTOX 73): −2.5 fold | Effects on Transcription Level: Novel gene fragment, 126 bp, 77% SI to human DNA sequence from cosmid V311G7, between markers DXS366 and DXS87 on chromosome X [Z69304] (rat heart tissue; CARDIOTOX 74): +2.0 fold | Effects on Transcription Level: Novel gene fragment, 370 bp (rat heart tissue; CARDIOTOX 75): −1.9 fold | Effects on Transcription Level: Novel gene fragment, 337 bp, 78% SI to novel human protein AHNAK [M80899] (rat heart tissue; CARDIOTOX 76): −2.5 fold | Effects on Transcription Level: Novel gene fragment, 100 bp, 93% SI to human KIAA0750 protein [ABO18293] (rat heart tissue; CARDIOTOX 77): −7.6 fold | Effects on Transcription Level: Novel gene fragment, 44 bp (rat heart tissue; CARDIOTOX 78): −5.6 fold | Effects on Transcription Level: Novel gene fragment, 698 bp, 93% SI to mouse plenty-of-prolines-101 [AF062655] (rat heart tissue; CARDIOTOX 79): −2.3 fold | Effects on Transcription Level: Novel gene fragment, 660 bp, 84% SI to mouse membrane protein TMS-2 [AF181685] (rat heart tissue; CARDIOTOX 80): −4.1 fold | Effects on Transcription Level: Novel gene fragment, 115 bp (rat heart tissue; CARDIOTOX 81): −8.1 fold | Effects on Transcription Level: Novel gene fragment, 294 bp, 95% SI to mouse Ndr1 related protein Ndr2 [AB033921] (rat heart tissue; CARDIOTOX 82): −2.5 fold | Effects on Transcription Level: Novel gene fragment, 198 bp (rat heart tissue; CARDIOTOX 83): +2.5 fold | Effects on Transcription Level: Novel gene fragment, 730 bp, 86% SI to mouse E800 [Y10968] (rat heart tissue; CARDIOTOX 84): −1.8 fold | Effects on Transcription Level: Novel gene fragment, 294 bp, 98% SI to cysteine conjugate beta-lyase [S61960] (rat heart tissue; CARDIOTOX 85): −1.8 fold | Effects on Transcription Level: Aconitase (rat heart tissue; CARDIOTOX 86, GenBank A1243266): −3.9 fold | Effects on Transcription Level: Ribosomal protein L7 (rat heart tissue; CARDIOTOX 87, GenBank M17422): +2.7 fold | Effects on Transcription Level: Ribosomal protein L9 (rat heart tissue; CARDIOTOX 88, GenBank X51706): +6.0 fold | Effects on Transcription Level: Ribosomal protein L12 (rat heart tissue; CARDIOTOX 89, GenBank X53504): −2.2 fold | Effects on Transcription Level: 18S, 5.8S, and 28S ribosomal RNA's (rat heart tissue; CARDIOTOX 90, GenBank V01270): +7 fold | Effects on Transcription Level: Pyruvate dehydrogenase kinase 2 (PDK2) (rat heart tissue; CARDIOTOX 91, GenBank U10357): −11.3 fold | Effects on Transcription Level: D-Binding Protein (DBP) (rat heart tissue; CARDIOTOX 92, GenBank J03179): −1.5 fold | Effects on Transcription Level: Lipoprotein lipase (rat heart tissue; CARDIOTOX 93, GenBank L03294): −3.7 fold | Effects on Transcription Level: Non-neuronal enolase (rat heart tissue; CARDIOTOX 94, GenBank X02610): +3.1 fold | Effects on Transcription Level: Glycogen phosphorylase (muscle isozyme) (rat heart tissue; CARDIOTOX 95, GenBank L10669): −3.0 fold | Effects on Transcription Level: Cytochrome c oxidase subunit IV (rat heart tissue; CARDIOTOX 96, GenBank X14209): +8.0 fold | Effects on Transcription Level: Alpha-globin (rat heart tissue; CARDIOTOX 97, GenBank M17083): +2.9 fold | Effects on Transcription Level: Beta-globin (rat heart tissue; CARDIOTOX 98, GenBank X06701): +4.0 fold | Effects on Transcription Level: Myoglobin (rat heart tissue; CARDIOTOX 99, GenBank AF197916): +2.2 fold | Effects on Transcription Level: Titin (rat heart tissue; CARDIOTOX 100, GenBank L38717): +1.6 fold | Effects on Transcription Level: Skeletal muscle actin (rat heart tissue; CARDIOTOX 101, GenBank V01218): −13.1 fold | Effects on Transcription Level: Myosin light chain 2 (MLC2) (rat heart tissue; CARDIOTOX 102, GenBank M11851): +3.6 fold | Effects on Transcription Level: Alpha cardiac myosin heavy chain (rat heart tissue; CARDIOTOX 103, GenBank X15938): −4.8 fold | Effects on Transcription Level: Troponin I (rat heart tissue; CARDIOTOX 104, GenBank U77354): +1.6 fold | Effects on Transcription Level: Cardiac calsequestrin (rat heart tissue; CARDIOTOX 105, GenBank AF001334): −2.4 fold | Effects on Transcription Level: Sulfated glycoprotein 2 (rat heart tissue; CARDIOTOX 106, GenBank M16975): −2.2 fold | Effects on Transcription Level: Aquaporin 7 (rat heart tissue; CARDIOTOX 107, GenBank AB000507): +1.8 fold | Effects on Transcription Level: Carnitine/acylcarnitine carrier protein (rat heart tissue; CARDIOTOX 108, GenBank X97831): −2.6 fold | Effects on Transcription Level: Glu-Pro Dipeptide Repeat (rat heart tissue; CARDIOTOX 109, GenBank U40628): −3.1 fold | Effects on Transcription Level: Cystatin beta (rat heart tissue; CARDIOTOX 110, GenBank X54737): +2.5 fold | Effects on Transcription Level: Novel gene fragment, 593 bp, 90% SI to human calcineurin B-like protein [Z08983] (rat heart tissue; CARDIOTOX 111): +2.1 fold | Effects on Transcription Level: Novel gene fragment, 179 bp, 88% SI to human titin [X90568] (rat heart tissue; CARDIOTOX 112): −1.8 fold | Effects on Transcription Level: Novel gene fragment, 700 bp, 91% SI to mouse periplakin (PPL) [AF116523] (rat heart tissue; CARDIOTOX 113): +2.1 fold | Effects on Transcription Level: Long chain acyl-CoA dehydrogenase (LCAD) (rat heart tissue; CARDIOTOX 114, GenBank J05029): +1.6 fold | Effects on Transcription Level: Sulfated glycoprotein 1 (SGP-1) (rat heart tissue; CARDIOTOX 115, GenBank M19936): −2.1 fold | Effects on Transcription Level: Catalase (rat heart tissue; CARDIOTOX 116, GenBank M11670): +1.9 fold | Effects on Transcription Level: Alpha-fodrin (A2A) (Nonerythroid spectrin alpha subunit) (rat heart tissue; CARDIOTOX 117, GenBank AF084186): −1.6 fold | Effects on Transcription Level: Cardiac specific sodium channel alpha-subunit (rat heart tissue; CARDIOTOX 118, GenBank M27902): −2.1 fold | Effects on Transcription Level: Glu-Pro Dipeptide Repeat (rat heart tissue; CARDIOTOX 119, GenBank U40628): +2.7 fold | Effects on Transcription Level: Novel gene fragment, 200 bp, 64% SI to human KIAA0733 protein [AB018316] (rat heart tissue; CARDIOTOX 120): −1.6 fold | Effects on Transcription Level: RNA polymerase II transcription factor SIII (p18 subunit) (rat heart tissue; CARDIOTOX 121, GenBank L42855): +1.8 fold | Effects on Transcription Level: Protein-tyrosine phosphalase (LRP) (rat heart tissue; CARDIOTOX 122, GenBank L01702): +1.5 fold | Effects on Transcription Level: Skeletal muscle selenoprotein W (SelW) (rat heart tissue; CARDIOTOX 123, GenBank U25264): −1.6 fold | Effects on Transcription Level: Sarcoplasmic reticulum 2+-Ca-ATPase (rat heart tissue; CARDIOTOX 124, GenBank X15635): −1.8 fold | Effects on Transcription Level: Ribosomal protein S7 (rat heart tissue; CARDIOTOX 125, GenBank X53377): +1.3 fold | Effects on Transcription Level: Ribophorin I (rat heart tissue; CARDIOTOX 126, GenBank X05300): +1.4 fold | Effects on Transcription Level: Beta cardiac myosin heavy chain (rat heart tissue; CARDIOTOX 127, GenBank X15939): +1.4 fold | Effects on Transcription Level: ADP-ribosylation factor 1 (rat heart tissue; CARDIOTOX 128, GenBank L12380): −1.0 fold | Effects on Transcription Level: Laminin receptor (rat heart tissue; CARDIOTOX 129, GenBank U04942): −1.5 fold | Effects on Transcription Level: Novel gene fragment, 206 bp, 89% SI to human seryl-tRNA synthetase [X91257] (rat heart tissue; CARDIOTOX 130): +1.7 fold | Effects on Transcription Level: Annexin VI (rat heart tissue; CARDIOTOX 131, GenBank X86086): +1.3 fold | Effects on Transcription Level: Novel gene fragment, 325 bp, 90% SI to mouse N-RAP [U76618] (rat heart tissue; CARDIOTOX 132): +1.4 fold | Effects on Transcription Level: Novel gene fragment, 61 bp (CARDIOTOX 134) (rat heart tissue; LD10 dose for three days): −1.2 fold | Effects on Transcription Level: Novel gene fragment, 337 bp (CARDIOTOX 133) (rat heart tissue; LD10 dose for three days): +1.0 fold | Effects on Transcription Level: Novel gene fragment, 378 bp, 88% SI to human coatomer protein (COPA) [U24105] (CARDIOTOX 138) (rat heart tissue; LD10 dose for three days): −1.1 fold | Effects on Transcription Level: Long chain 3-ketoacyl-CoA thiolase (CARDIOTOX 136) (rat heart tissue; LD10 dose for three days, GenBank D16479): −1.1 fold | Effects on Transcription Level: TATA-binding protein interacting protein 120 (TIP120) (CARDIOTOX 135) (rat heart tissue; LD10 dose for three days, GenBank D87671): +1.4 fold | Effects on Transcription Level: Serine protease (CARDIOTOX 139) (rat heart tissue; LD10 dose for three days, GenBank D88250): +1.5 fold | Effects on Transcription Level: Thymosin beta-4 (CARDIOTOX 137) (rat heart tissue; LD10 dose for three days, GenBank M34043): +1.4 fold | classification as cardiotoxic or noncardiotoxic serotonin modulating agent [1]: noncardiotoxic
